Reference: patent US20130109682A1, “CYCLIC ETHER COMPOUNDS USEFUL AS KINASE INHIBITORS” (NOVARTIS AG, priority 2010, published 2013)

Assays:
[1] = target: PIM3 (Homo sapiens, UniProt Q86V86); experiment: KinaseGlo Pim3 ATP depletion assay; assay type: biochemical
Procedure: KinaseGlo Pim3 ATP Depletion Assay
The activity of PIM3 is measured using a luciferase-luciferin based ATP detection reagent to quantify ATP depletion resulting from kinase-catalyzed phosphoryl transfer to a peptide substrate. Compounds to be tested are dissolved in 100% DMSO and directly distributed into white 384-well plates at 0.5 μl per well. To start the reaction, 10 μl of 10 nM Pim3 kinase and 200 μM BAD peptide (RSRHSSYPAGT-OH) in assay buffer (50 mM HEPES pH 7.5, 5 mM MgCl2, 1 mM DTT, 0.05% BSA) is added into each well. After 15 minutes, 10 μl of 80 μM ATP in assay buffer is added. Final assay concentrations are 5 nM […], 40 μM ATP, 100 μM BAD peptide and 2.5% DMSO. The reaction is performed until approximately 50% of the ATP is depleted, then stopped by the addition of 20 μl KinaseGlo Plus (Promega Corporation) solution. The stopped reaction is incubated for 10 minutes and the remaining ATP detected via luminescence on the Victor2 (Perkin Elmer).

[2] = target: GSK3β (Homo sapiens, UniProt P49841); experiment: GSK3β ATP depletion assay; assay type: biochemical; conditions: read-out: GSK3b IC50
Procedure: GSK3β ATP Depletion Assay
The activity of GSK3β is measured using a luciferase-luciferin based ATP detection reagent to quantify ATP depletion resulting from kinase-catalyzed phosphoryl transfer to a peptide substrate. Compounds to be tested are dissolved in 100% DMSO and directly distributed into white 384-well plates at 0.5 μl per well. To start the reaction, 10 μl of 10 nM GSK3B kinase and 20 μM biotinylated CREB peptide ([…](pS)YR-NH2) in assay buffer (50 mM TRIS pH 7.5, 15 mM MgCl2, 1 mM DTT, 0.1% BSA) is added into each well. After 15 minutes, 10 μl of 2 μM ATP in assay buffer is added. Final assay concentrations are 5 nM GSK3B, […], 10 μM b-CREB peptide and 2.5% DMSO. The reaction is performed until approximately 50% of the ATP is depleted, then stopped with the addition of 20 μl KinaseGlo (Promega Corporation) solution. The stopped reaction is incubated for 10 minutes and the remaining ATP is detected via luminescence on the Victor2 (Perkin Elmer).

[3] = target: PIM1 (Homo sapiens, UniProt P11309); experiment: KinaseGlo Pim1 ATP depletion assay; assay type: biochemical
Procedure: KinaseGlo Pim1 ATP Depletion Assay
The activity of PIM1 is measured using a luciferase-luciferin based ATP detection reagent to quantify ATP depletion resulting from kinase-catalyzed phosphoryl transfer to a peptide substrate. Compounds to be tested are dissolved in 100% DMSO and directly distributed into white 384-well plates at 0.5 μA per well. To start the reaction, 10 μA of 5 nM Pim1 kinase and 80 μM BAD peptide (RSRHSSYPAGT-OH) in assay buffer (50 mM HEPES pH 7.5, 5 mM MgCl2, 1 mM DTT, 0.05% BSA) is added into each well. After 15 minutes, 10 μl of 40 μM ATP in assay buffer is added. Final assay concentrations are 2.5 nM PIM1, 20 μM ATP, 40 μM BAD peptide and 2.5% DMSO. The reaction is performed until approximately 50% of the ATP is depleted, then stopped with the addition of 20 μA KinaseGlo Plus (Promega Corporation) solution. The stopped reaction is incubated for 10 minutes and the remaining ATP detected via luminescence on the Victor2 (Perkin Elmer). […] IC50, the half maximal inhibitory concentration, represents the concentration of a test compound that is required for 50% inhibition of its target in vitro.

[4] = target: PIM2 (Homo sapiens, UniProt Q9P1W9); experiment: KinaseGlo Pim2 ATP depletion assay; assay type: biochemical
Procedure: KinaseGlo Pim2 ATP Depletion Assay
The activity of PIM2 is measured using a luciferase-luciferin based ATP detection reagent to quantify ATP depletion resulting from kinase-catalyzed phosphoryl transfer to a peptide substrate. Compounds to be tested are dissolved in 100% DMSO and directly distributed into white 384-well plates at 0.5 piper well. To start the reaction, 10 μl of 10 nM Pim2 kinase and 20 μM BAD peptide (RSRHSSYPAGT-OH) in assay buffer (50 mM HEPES pH 7.5, 5 mM MgCl2, 1 mM DTT, 0.05% BSA) is added into each well. After 15 minutes, 10 μl of 8 μM ATP in assay buffer is added. Final assay concentrations are 5 nM PIM2, 4 μM ATP, 10 μM BAD peptide and 2.5% DMSO. The reaction is performed until approximately 50% of the ATP is depleted, then stopped with the addition of 20 μl KinaseGlo Plus (Promega Corporation) solution. The stopped reaction is incubated for 10 minutes and the remaining ATP detected via luminescence on the Victor2 (Perkin Elmer).

[5] = system: KMS11 (human myeloma cell line); experiment: Cell proliferation assay (CellTiter-Glo), KMS11; assay type: cell-based; conditions: Homo sapiens, KMS-11; KMS11-Luc cells
Procedure: KMS11 (human myeloma cell line), were cultured in IMDM supplemented with 10% FBS, sodium pyruvate and antibiotics. Cells were plated in the same medium at a density of 2000 cells per well into 96 well tissue culture plates, with outside wells vacant, on the day of assay. MMl.s (human myeloma cell line), were cultured in RPMI1640 supplemented with 10% FBS, sodium pyruvate and antibiotics. Cells were plated in the same medium at a density of 5000 cells per well into 96 well tissue culture plates, with outside wells vacant, on the day of assay.
Test compounds supplied in DMSO were diluted into DMSO at 500 times the desired final concentrations before dilution into culture media to 2 times final concentrations. Equal volumes of 2× compounds were added to the cells in 96 well plates and incubated at 37° C. for 3 days.
After 3 days plates were equilibrated to room temperature and equal volume of CellTiter-Glow Reagent (Promega) was added to the culture wells. The plates were agitated briefly and luminescent signal was measured with luminometer.
Using the procedures of Cell Proliferation Assay, the EC50 concentration of indicated compounds of the examples in were determined in KMS11 cells as shown in Table 4.

Sequence of PIM1 (P11309 whole entry): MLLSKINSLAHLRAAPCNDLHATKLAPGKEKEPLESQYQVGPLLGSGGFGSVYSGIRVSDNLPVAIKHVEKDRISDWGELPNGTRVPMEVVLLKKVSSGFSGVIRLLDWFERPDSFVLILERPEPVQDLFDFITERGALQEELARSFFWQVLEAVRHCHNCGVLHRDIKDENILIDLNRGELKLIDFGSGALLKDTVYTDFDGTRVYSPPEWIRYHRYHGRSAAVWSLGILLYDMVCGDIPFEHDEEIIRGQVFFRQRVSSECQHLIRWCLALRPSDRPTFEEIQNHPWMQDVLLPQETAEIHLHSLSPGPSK
Sequence of GSK3β (P49841 whole entry, species assumed): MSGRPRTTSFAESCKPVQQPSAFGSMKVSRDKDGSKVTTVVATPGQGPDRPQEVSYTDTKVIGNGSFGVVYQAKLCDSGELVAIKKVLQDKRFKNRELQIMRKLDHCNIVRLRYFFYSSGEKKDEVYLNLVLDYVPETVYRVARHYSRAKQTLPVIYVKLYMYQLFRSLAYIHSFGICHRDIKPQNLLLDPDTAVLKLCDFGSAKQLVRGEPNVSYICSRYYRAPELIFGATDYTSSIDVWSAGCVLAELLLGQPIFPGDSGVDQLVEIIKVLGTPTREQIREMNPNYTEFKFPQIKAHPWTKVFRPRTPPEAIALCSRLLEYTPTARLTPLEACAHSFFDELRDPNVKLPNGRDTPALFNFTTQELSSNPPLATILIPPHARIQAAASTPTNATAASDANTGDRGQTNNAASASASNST
Sequence of PIM2 (Q9P1W9 whole entry): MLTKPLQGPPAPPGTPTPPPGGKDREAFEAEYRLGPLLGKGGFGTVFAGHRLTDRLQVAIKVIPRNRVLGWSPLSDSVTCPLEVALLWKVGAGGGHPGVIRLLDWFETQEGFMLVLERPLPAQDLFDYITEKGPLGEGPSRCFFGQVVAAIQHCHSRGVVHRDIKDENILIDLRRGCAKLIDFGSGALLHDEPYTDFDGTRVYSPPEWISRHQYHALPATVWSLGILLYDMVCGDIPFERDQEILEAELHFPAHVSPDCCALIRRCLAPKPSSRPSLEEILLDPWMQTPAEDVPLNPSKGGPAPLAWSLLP

IC50 [1] [nM]	IC50 [2] [nM]	IC50 [3] [nM]	IC50 [4] [nM]	EC50 [5] [nM]	SMILES
88	272	68	3420	> 10000	C[C@H]1O[C@@H](c2ccncc2NC(=O)c2csc(-c3c(F)cccc3F)n2)C[C@@H](O)[C@]1(C)O (stereo in doubt) [Example 109, 2-(2,6-difluorophenyl)-N-(4-((2R,4R,5S,6R)-4,5-dihydroxy-5,6-dimethyltetrahydro-2H-pyran-2-yl)pyridin-3-yl)thiazole-4-carboxamide]
16	659	19	347	> 10000	C[C@H]1O[C@@H](c2ccncc2NC(=O)c2ccc(F)c(-c3c(F)cccc3F)n2)C[C@@H](O)[C@]1(C)O (stereo in doubt) [Example 110, 6-(2,6-difluorophenyl)-N-(4-((2R,4R,5S,6R)-4,5-dihydroxy-5,6-dimethyltetrahydro-2H-pyran-2-yl)pyridin-3-yl)-5-fluoropicolinamide]
2	26	1	43	> 10000	C[C@@H]1O[C@H](c2ccncc2NC(=O)c2csc(-c3c(F)cccc3F)n2)C[C@H](O)[C@@]1(C)O (stereo in doubt) [Example 111, 2-(2,6-difluorophenyl)-N-(4-((2S,4S,5R,6S)-4,5-dihydroxy-5,6-dimethyltetrahydro-2H-pyran-2-yl)pyridin-3-yl)thiazole-4-carboxamide]
165	104	10	2320	> 10000	C[C@@H]1C[C@H](O)C[C@H](c2ccncc2NC(=O)c2csc(-c3c(F)cccc3F)n2)O1 (stereo in doubt) [Example 125, 2-(2,6-difluorophenyl)-N-(4-((2R,4S,6R)-4-hydroxy-6-methyltetrahydro-2H-pyran-2-yl)pyridin-3-yl)thiazole-4-carboxamide]
52	548	4	213	> 10000	C[C@@H]1C[C@H](O)C[C@H](c2ccncc2NC(=O)c2ccc(F)c(-c3c(F)cccc3F)n2)O1 (stereo in doubt) [Example 126, 6-(2,6-difluorophenyl)-5-fluoro-N-(4-((2R,4S,6R)-4-hydroxy-6-methyltetrahydro-2H-pyran-2-yl)pyridin-3-yl)picolinamide]
7	76	1	149	> 10000	C[C@@H]1O[C@H](c2ccncc2NC(=O)c2csc(-c3c(F)cccc3F)n2)C[C@H](O)[C@H]1O (stereo in doubt) [Example 135, 2-(2,6-difluorophenyl)-N-(4-((2S,4S,5R,6S)-4,5-dihydroxy-6-methyltetrahydro-2H-pyran-2-yl)pyridin-3-yl)thiazole-4-carboxamide]
13	165	18	363	> 10000	C[C@H]1O[C@@H](c2ccncc2NC(=O)c2csc(-c3c(F)cccc3F)n2)C[C@@H](O)[C@@H]1O (stereo in doubt) [Example 136, 2-(2,6-difluorophenyl)-N-(4-((2R,4R,5S,6R)-4,5-dihydroxy-6-methyltetrahydro-2H-pyran-2-yl)pyridin-3-yl)thiazole-4-carboxamide]
3.2	33	17	5	9350	N#Cc1ccc(F)c(-c2nc(C(=O)Nc3cnccc3[C@H]3C[C@@H](O)[C@H](O)[C@@H](CCl)O3)ccc2F)c1F [Example 1, N-(4-((2R,4R,5S,6S)-6-(chloromethyl)-4,5-dihydroxytetrahydro-2H-pyran-2-yl)pyridin-3-yl)-6-(3-cyano-2,6-difluorophenyl)-5-fluoropicolinamide]
8.3	51	42	13	> 10000	CC[C@H]1O[C@@H](c2ccncc2NC(=O)c2ccc(F)c(-c3c(F)ccc(C#N)c3F)n2)C[C@@H](O)[C@@H]1O [Example 2, 6-(3-cyano-2,6-difluorophenyl)-N-(4-((2R,4R,5S,6R)-6-ethyl-4,5-dihydroxytetrahydro-2H-pyran-2-yl)pyridin-3-yl)-5-fluoropicolinamide]
12	1170	8.7	66	> 10000	CC[C@]1(O)[C@H](O)C[C@H](c2ccncc2NC(=O)c2nc(-c3nccs3)ccc2N)O[C@@H]1C [Example 3, 3-amino-N-(4-((2R,4R,5S,6R)-5-ethyl-4,5-dihydroxy-6-methyltetrahydro-2H-pyran-2-yl)pyridin-3-yl)-6-(thiazol-2-yl)picolinamide]
3.1	268	1.1	4	7240	N#C[C@H]1OC(c2ccncc2NC(=O)c2nc(-c3c(F)cccc3F)c(F)cc2N)=C[C@@H](O)[C@@H]1O [Example 4, 3-amino-N-(4-((2R,3S,4R)-2-cyano-3,4-dihydroxy-3,4-dihydro-2H-pyran-6-yl)pyridin-3-yl)-6-(2,6-difluorophenyl)-5-fluoropicolinamide]
53.6	720	70	280	> 10000	C=C1[C@@H](O)C[C@@H](c2ccncc2NC(=O)c2nc(-c3c(F)cccc3F)ncc2N)OC12CC2 [Example 6, 5-amino-2-(2,6-difluorophenyl)-N-(4-((5S,7S)-7-hydroxy-8-methylene-4-oxaspiro[2.5]octan-5-yl)pyridin-3-yl)pyrimidine-4-carboxamide]
17	879	8	151	> 10000	C=C1[C@@H](O)C[C@@H](c2ccncc2NC(=O)c2ccc(F)c(-c3c(F)cccc3F)n2)OC12CC2 [Example 7, 6-(2,6-difluorophenyl)-5-fluoro-N-(4-((5S,7S)-7-hydroxy-8-methylene-4-oxaspiro[2.5]octan-5-yl)pyridin-3-yl)picolinamide]
